In PubChem BioAssay AID434951 (Broad Institute, 2010) one finds EC50 data, which are given here for 92 compounds.

One may read the EC50 as the concentration at which the effect is half-maximal.

The source made the active and inactive calls.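 The calls were made as follows: active = a fitted half-maximal concentration EC50 for the rise in nuclear signal no higher than ten times the top dose tested; inconclusive = flat fit with activity between 30% and 70%, or unusable fit; inactive = EC50 beyond ten times the top dose.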

The target in this experiment is Hypoxia-inducible factor 1-alpha (Homo sapiens) (UniProt Q16665). The experiment is described as follows: activators of HIF1alpha nuclear accumulation, confirmation, imaging, fluorescence, U2OS GFP-HIF1alpha (AID 434951). Conditions: U2OS GFP-HIF1alpha nuclear intensity, high-content imaging.
Sequence of Hypoxia-inducible factor 1-alpha (Homo sapiens) (Q16665 whole entry, looked up): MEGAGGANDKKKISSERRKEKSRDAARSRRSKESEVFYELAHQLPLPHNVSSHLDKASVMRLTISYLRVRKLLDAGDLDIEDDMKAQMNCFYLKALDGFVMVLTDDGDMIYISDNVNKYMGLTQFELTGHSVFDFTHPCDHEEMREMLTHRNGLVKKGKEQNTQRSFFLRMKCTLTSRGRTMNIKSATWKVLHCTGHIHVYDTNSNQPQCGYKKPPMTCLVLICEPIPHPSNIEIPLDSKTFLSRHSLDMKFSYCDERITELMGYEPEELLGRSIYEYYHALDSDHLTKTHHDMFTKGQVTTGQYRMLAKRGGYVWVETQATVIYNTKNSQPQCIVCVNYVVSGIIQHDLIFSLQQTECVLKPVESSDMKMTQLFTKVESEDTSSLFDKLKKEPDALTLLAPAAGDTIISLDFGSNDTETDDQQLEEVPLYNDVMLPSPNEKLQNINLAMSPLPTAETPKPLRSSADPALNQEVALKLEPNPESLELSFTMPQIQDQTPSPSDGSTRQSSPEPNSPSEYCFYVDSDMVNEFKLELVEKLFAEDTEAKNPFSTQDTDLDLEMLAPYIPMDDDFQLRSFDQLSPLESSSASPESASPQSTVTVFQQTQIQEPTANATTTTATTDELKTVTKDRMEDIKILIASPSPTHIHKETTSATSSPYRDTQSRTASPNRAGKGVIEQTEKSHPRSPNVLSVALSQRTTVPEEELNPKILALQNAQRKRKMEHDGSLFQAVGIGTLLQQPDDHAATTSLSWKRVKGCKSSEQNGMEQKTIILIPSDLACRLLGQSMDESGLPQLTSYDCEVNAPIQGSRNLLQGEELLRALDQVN
In the case of `O=C(/C=C/c1ccccc1)NCCc1nc2ccccc2[nH]1`, the EC50 is > 35 µM (inactive).

As for `Cc1ccc(OC(C)C(=O)N2CC(=O)Nc3ccccc32)cc1` (configuration not stated), the EC50 was > 35 µM (inactive).

As for `CCC(Cc1ccccc1)n1c(=S)[nH]c2ccccc2c1=O` (configuration not stated), the EC50 is > 35 µM (inactive).

Turning to `CCC1CCCCN1CCCNC(=O)C1CCN(c2nnc(-n3cccc3)s2)CC1` (configuration not stated), the EC50 is > 35 µM (inactive).

Turning to `Oc1c(CN2CCN(c3ccc(F)cc3)CC2)cc(Cl)c2cccnc12`, the EC50 was 6.07 µM.

Turning to `O=C(C1=NN[C@@H]2C(=O)N(c3cccc(C(F)(F)F)c3)C(=O)[C@H]12)C(c1ccccc1)c1ccccc1`, the EC50 was > 35 µM (inactive).

As for `CC(C)=NOC(=O)c1c(C)noc1-c1snnc1C`, the EC50 was > 35 µM (inactive).

For `CCOC(=O)C(=Cc1ccc(OCc2ccc([N+](=O)[O-])cc2)c(OC)c1)C(=O)OCC`, the EC50 is 7.32 µM.

`NS(=O)(=O)c1ccc(NC(=O)c2ccc(CSc3ccccc3)o2)cc1`: the EC50 was > 35 µM (inactive).

For `COC(=O)[C@H](CCSC)NC(=O)c1cccnc1SC`, the EC50 was > 35 µM (inactive).

For the compound `COC(=O)Nc1ccc(=O)n(Cc2c(Cl)cccc2Cl)c1`, the EC50 is > 35 µM (inactive).

In the case of `O=C(Nc1nc(-c2ccccn2)cs1)c1ccc(S(=O)(=O)N2CCCCC2)cc1`, the EC50 was 7.12 µM.

In the case of `C/C(=N\NC(=O)c1cc(-c2cccnc2)nc2ccccc12)c1ccccc1O`, the EC50 is 21.9 µM.

On to `CCN(CC(=O)Nc1ccc2c(c1)OCCO2)CC(=O)Nc1ccc2c(c1)OCO2`, for which the EC50 was > 35 µM (inactive).

Turning to `CC(C)Cc1nnc(NC(=O)CCC(=O)N2CCC3(CC2)OCCO3)s1`, the EC50 is > 35 µM (inactive).

Take `COC(=O)CC1C(=O)NCCN1C(=O)CSc1nnc(Nc2ccc(OC)cc2)s1` (configuration not stated): the EC50 is > 35 µM (inactive).

As for `NC(=S)NNC(=O)c1cc(C(F)(F)F)cc(C(F)(F)F)c1`, the EC50 is > 35 µM (inactive).

For the compound `CCC(=O)NC(c1ccc(C)cc1)c1ccc2cccnc2c1O` (configuration not stated), the EC50 was 3.85 µM.

As for `Cc1ccc(/C=N/NC(=O)c2ccc(Br)o2)s1`, the EC50 is > 35 µM (inactive).

For the compound `Clc1ccc(CSc2ccc(-c3ccccn3)nn2)cc1`, the EC50 was 9.44 µM.

On to `CCCCNC(=O)CN1C(=O)COc2ccc(S(=O)(=O)N3CCCCCC3)cc21`, for which the EC50 is > 35 µM (inactive).

Regarding `CCOC(=O)c1sc(N(Cc2ccccc2)C(=O)COC(=O)c2ccc(O)cc2)nc1C`, the EC50 is 12.2 µM.

Take `COc1ccc(-c2cn3nc(SCC(=O)NCC4CCCO4)ccc3n2)cc1` (configuration not stated): the EC50 is > 35 µM (inactive).

Turning to `CCOC(=O)c1c(C)nc2cc(C)ccn12`, the EC50 was > 35 µM (inactive).

Take `CCCCCCCC1CC(=O)C=C(C)C1C(=O)OCC` (configuration not stated): the EC50 was > 35 µM (inactive).

In the case of `Cn1cccc1-c1cc(C(=O)N/N=C/c2cc(Br)ccc2O)[nH]n1`, the EC50 was 4.69 µM.

`Cc1c(Cl)c([N+](=O)[O-])nn1Cc1ccc(C(=O)N/N=C\c2cc(Cl)ccc2O)o1`: the EC50 is 9.26 µM.

On to `CCCC(=O)NC(c1ccc(Cl)cc1Cl)c1ccc2cccnc2c1O` (configuration not stated), for which the EC50 was 2.35 µM.

For `Cc1cc(NC(=O)c2ccccc2)n(-c2nc3ccccc3[nH]2)n1`, the EC50 was 27 µM.

`CC(NC(=O)C12CC3CC(CC(O)(C3)C1)C2)c1ccc(Cl)cc1Cl` (configuration not stated): the EC50 is > 35 µM (inactive).

In the case of `CCCC(=O)NC(c1ccc(N(C)C)cc1)c1ccc2cccnc2c1O` (configuration not stated), the EC50 is 6.62 µM.

Take `CC(C)COc1ccc(C(=O)Nc2ccc([N+](=O)[O-])cc2)cc1`: the EC50 was > 35 µM (inactive).

Consider `COc1ccccc1C(=O)Oc1ccccc1C(=O)Nc1ccccc1`, for which the EC50 is > 35 µM (inactive).

As to `c1ccc(CSc2ccc(-c3ccccn3)nn2)cc1`, the EC50 is 5.92 µM.

With `COc1ccc(C(CC(=O)Nc2ccccc2OC)n2cccc2)cc1` (configuration not stated), the EC50 was > 35 µM (inactive).

Take `COc1cccc(Nc2n[nH]c(=S)s2)c1`: the EC50 was > 35 µM (inactive).

As to `O=C1CSCN1c1ccc(Cl)cc1`, the EC50 was > 35 µM (inactive).

For the compound `CCN(CC)c1ccc(/C=N/NC(=O)c2ccoc2C)c(O)c1`, the EC50 is 10.9 µM.

For `COc1ccc(N/C=C\C(=O)c2ccc3c(c2)OCO3)cc1`, the EC50 is > 35 µM (inactive).

With `O=C(Nc1nc(NC(=O)c2ccco2)n(-c2ccccc2)n1)c1ccccc1`, the concentration for a half-maximal effect (EC50) is 13.1 µM.

As to `Cc1ccc(C(=O)Nc2c3c(nn2C(C)(C)C)CS(=O)(=O)C3)cc1C`, the EC50 is > 35 µM (inactive).

Consider `CCCn1c2ccccc2c2cnn(CC(=O)NC3CCCC(C)C3C)c(=O)c21` (configuration not stated), for which the 50% effective concentration (EC50) is 7.26 µM.

Turning to `COc1ccc(CC(=O)N2CCN(C(=O)Cc3ccc(OC)cc3)CC2)cc1`, the EC50 was > 35 µM (inactive).

On to `Cc1ccc(-c2cc(C(F)(F)F)n3nc(C(=O)Nc4c(C)n(C)n(-c5ccccc5)c4=O)cc3n2)cc1`, for which the EC50 is > 35 µM (inactive).

With `CCCCc1ccc(NC(=O)C2CCN(S(C)(=O)=O)CC2)cc1`, the EC50 was > 35 µM (inactive).

Consider `CCOC(=O)/C(=N\Nc1cccc(C(F)(F)F)c1)N1CCOCC1`, for which the EC50 was > 35 µM (inactive).

On to `Oc1ccc(CCNc2c3ccccc3nc3ccccc23)cc1O`, for which the EC50 was > 35 µM (inactive).

Consider `COc1cccc(C(=O)SC2=NCCS2)c1`, for which the EC50 was > 35 µM (inactive).

With `O=C(NCCc1ccccc1)C1CCN(S(=O)(=O)c2ccc(-n3cnnn3)cc2)CC1`, the EC50 is > 35 µM (inactive).

As to `COc1cccc(/C=N/NC(=O)c2[nH]nc3c2CCc2ccccc2-3)c1O`, the EC50 is 1.94 µM.

For the compound `CCCCC(=O)NC(c1ccc(Cl)cc1)c1ccc2cccnc2c1O` (configuration not stated), the EC50 is 1.66 µM.

Consider `Cc1ccc(CNC(=O)NC2CCCCC2)cc1`, for which the EC50 was > 35 µM (inactive).

In the case of `CN(C)c1ccc(CNC(=O)CCS(=O)(=O)c2ccc3c(c2)oc(=O)n3C)cc1`, the EC50 is > 35 µM (inactive).

Consider `COc1ccc(NC(=O)c2cccc(NC(=O)c3ccco3)c2)c(OC)c1`, for which the EC50 is > 35 µM (inactive).

For the compound `O=Cc1cc(N=Nc2ccccc2Cl)ccc1O`, the EC50 was > 35 µM (inactive).

`COC(=O)Cc1ccc(NC(=S)NC(C)(C)C)cc1`: the EC50 is > 35 µM (inactive).

`CSc1ccc(/C=N/Nc2ccc(Cl)c(C(=O)O)c2)cc1`: the EC50 was > 35 µM (inactive).

Consider `COC(=O)Nc1ccc(S(=O)(=O)N(C)C)cc1`, for which the EC50 was > 35 µM (inactive).

Take `C=CCN1C(=O)c2ccccc2Sc2ccc(C(=O)N3CCN(C)CC3)cc21`: the EC50 is > 35 µM (inactive).

As to `O=C(N/N=C/c1ccccn1)c1ccc(Br)cc1`, the EC50 is 12.2 µM.

`CC(C)CC(NC(=O)c1ccccc1NC(=O)c1ccccc1)C(=O)O` (configuration not stated): the EC50 was > 35 µM (inactive).

As to `Cc1sc2ncnc(Sc3nnnn3-c3ccc(Cl)cc3)c2c1C`, the EC50 was > 35 µM (inactive).

As for `Nc1nonc1-n1nnc(C(=O)N/N=C/c2cc(Br)ccc2O)c1CSC1=NCCS1`, the EC50 is 29.6 µM.

`CCOc1ccc(NC(=O)CC2C(=O)Nc3ccccc3N2C(=O)c2ccccc2)cc1` (configuration not stated): the EC50 is > 35 µM (inactive).

Regarding `CCNC(=O)COc1cccc(C(=O)NCc2ccccc2)c1`, the EC50 was > 35 µM (inactive).

On to `COc1cc(SC)ccc1C(=O)NCCc1ccccc1`, for which the EC50 is > 35 µM (inactive).

Take `COc1ccc(NC(=O)Nc2ccc(CC(=O)O)cc2)cc1`: the EC50 is > 35 µM (inactive).

On to `ONC=Nc1cccc2nonc12`, for which the EC50 was > 35 µM (inactive).

For `COc1ccc(/C=C2\SC(=O)N(CCC(=O)N(C)C3CCS(=O)(=O)C3)C2=O)cc1` (configuration not stated), the EC50 is > 35 µM (inactive).

Regarding `COc1cccc(C(=O)C2CCCN(Cc3ccc4nsnc4c3)C2)c1` (configuration not stated), the EC50 was > 35 µM (inactive).

On to `CC(=O)Nc1ccc(S(=O)(=O)/N=C2\C(=O)c3ccccc3C([O-])=C2n2cc[n+](-c3ccccn3)c2)cc1`, for which the EC50 is > 35 µM (inactive).

Regarding `O=C(CCSc1nc2ccccc2s1)N/N=C/c1c(O)ccc2ccccc12`, the EC50 was 11.5 µM.

For the compound `CS(=O)(=O)c1cccc(C(=O)N(CCc2ccccc2)Cc2cccs2)c1`, the EC50 is > 35 µM (inactive).

On to `COCCNC(=O)c1cc(-c2cccs2)on1`, for which the EC50 is 12 µM.

With `COc1ccccc1NC(c1cccnc1)c1ccc2cccnc2c1O` (configuration not stated), the EC50 is 25.9 µM.

As for `COc1ccccc1-c1cc(C(F)(F)F)nc(S(=O)(=O)CCCC(=O)NC(C)C)n1`, the EC50 was > 35 µM (inactive).

For the compound `Oc1[nH]c2ccc(Br)cc2c1N=NC(=S)N1CCOCC1`, the EC50 was 6.79 µM.

Take `Cc1cccc(NC(=O)Cc2noc3ccccc23)c1`: the EC50 was > 35 µM (inactive).

As to `CC(OC(=O)COc1ccc(Nc2ccccc2)cc1)C(=O)N(C)c1ccccc1` (configuration not stated), the EC50 is > 35 µM (inactive).

`Cn1c(CC(=O)Nc2ccccc2)cc2ccccc21`: the EC50 is > 35 µM (inactive).

Turning to `COc1cccc(/C=N/NC(=O)c2ccc(-c3ccccc3)cc2)c1O`, the EC50 is 30.5 µM.

As to `Cc1ccc(C2(O)CN(c3ccccc3C)C3=[N+]2CCS3)cc1` (configuration not stated), the EC50 is > 35 µM (inactive).

Consider `CC(=O)NC(c1cccc([N+](=O)[O-])c1)c1ccc2cccnc2c1O` (configuration not stated), for which the EC50 was 10.7 µM.

As to `O=C(NCc1nc2ccccc2[nH]1)c1c(F)c(F)c(F)c(F)c1F`, the EC50 is > 35 µM (inactive).

`Oc1ccc2ccccc2c1N=Nc1ccccn1`: the EC50 is 9 µM.

As for `CCN(CC)S(=O)(=O)c1ccc(N/N=C/c2ccc(O)cc2O)nc1`, the EC50 was 0.715 µM.

For the compound `COc1ccc(NC(=S)N2CCN(C(=O)c3ccccc3)CC2)cc1`, the EC50 was > 35 µM (inactive).

Turning to `COc1ccc(N(CC(=O)Nc2cc(OC)ccc2OC)S(=O)(=O)c2c(C)noc2C)cc1`, the EC50 was > 35 µM (inactive).

For `Cc1nn(C)cc1S(=O)(=O)NCc1ccc2c(c1)OCO2`, the EC50 was > 35 µM (inactive).

As to `CCOc1nc(NCCN2CCOCC2)nc(Nc2ccc(C)cc2)n1`, the EC50 is > 35 µM (inactive).

As to `CSc1sc(C(=O)N2CCCCC2)c(-c2cccs2)c1C#N`, the EC50 was > 35 µM (inactive).

Take `[O-]/C(=C(\C(=S)Nc1cccc2ccccc12)[n+]1ccccc1)c1cccs1`: the EC50 is > 35 µM (inactive).
